Assay results published in ChEMBL document CHEMBL1201862, “PubChem BioAssay data set” (2004).
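Each compound was tested at five concentrations against cells in 96-well plates for 48 hours. The concentration for 50% growth inhibition is given as GI50.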 Activity calls are given as the source filed them. Rule as the data show it: active = GI50 up to about 1.1 µM and inactive = higher.

Experiments:
Assay in all cases: NCI-60 cell line screen, 48 h
SR = test system: SR
U-251 = test system: U-251
HT-29 = test system: HT-29
RXF 393 = test system: RXF 393
SNB-19 = test system: SNB-19
NCI-H460 = test system: NCI-H460
XF498 = test system: XF498
SK-MEL-28 = test system: SK-MEL-28
UACC-62 = test system: UACC-62
HCC 2998 = test system: HCC 2998
OVCAR-4 = test system: OVCAR-4
NCI-H522 = test system: NCI-H522
OVCAR-5 = test system: OVCAR-5
HL-60 = test system: HL-60
SK-MEL-5 = test system: SK-MEL-5
RPMI-8226 = test system: RPMI-8226
T47D = test system: T47D
NCI/ADR-RES = test system: NCI/ADR-RES
BT-549 = test system: BT-549

## CN(C)c1nc(N(C)C)sc(=O)n1
SR
  GI50: > 100 µM (inactive)
U-251
  GI50: > 100 µM (inactive)
HT-29
  GI50: > 100 µM (inactive)
RXF 393
  GI50: > 100 µM (inactive)
SNB-19
  GI50: > 100 µM (inactive)
NCI-H460
  GI50: > 100 µM (inactive)
XF498
  GI50: > 100 µM (inactive)
SK-MEL-28
  GI50: > 100 µM (inactive)
UACC-62
  GI50: > 100 µM (inactive)
HCC 2998
  GI50: > 100 µM (inactive)
OVCAR-4
  GI50: > 100 µM (inactive)
NCI-H522
  GI50: > 100 µM (inactive)
OVCAR-5
  GI50: > 100 µM (inactive)
HL-60
  GI50: > 100 µM (inactive)
SK-MEL-5
  GI50: > 100 µM (inactive)
RPMI-8226
  GI50: > 100 µM (inactive)

## COc1ccc(/C=C2/CSC/C(=C/c3ccc(OC)c(OC)c3)C2=O)cc1OC
T47D
  GI50: 2.21 µM (inactive)
SR
  GI50: 0.828 µM (active)
NCI/ADR-RES
  GI50: 1.66 µM (inactive)
U-251
  GI50: 1.01 µM (active)
HT-29
  GI50: 1.09 µM (active)
RXF 393
  GI50: 3.34 µM (inactive)
SNB-19
  GI50: 3.5 µM (inactive)
NCI-H460
  GI50: 2.23 µM (inactive)
BT-549
  GI50: 2.88 µM (inactive)
XF498
  GI50: 11.7 µM (inactive)
SK-MEL-28
  GI50: 2.94 µM (inactive)
UACC-62
  GI50: 1.69 µM (inactive)
HCC 2998
  GI50: 2.57 µM (inactive)
OVCAR-4
  GI50: 1.71 µM (inactive)
NCI-H522
  GI50: 2.26 µM (inactive)
OVCAR-5
  GI50: 4.62 µM (inactive)
HL-60
  GI50: 1.03 µM (active)
SK-MEL-5
  GI50: 2.44 µM (inactive)
RPMI-8226
  GI50: 0.472 µM (active)

## N#CC(/C(CCCC(=O)Nc1cccc([N+](=O)[O-])c1)=N/NC(=O)c1cc2ccccc2cc1O)c1ccccc1 (configuration not stated)
SR
  GI50: 26.8 µM (inactive)
U-251
  GI50: 34.6 µM (inactive)
HT-29
  GI50: 36.4 µM (inactive)
RXF 393
  GI50: 5.07 µM (inactive)
SNB-19
  GI50: 28.8 µM (inactive)
NCI-H460
  GI50: 21.2 µM (inactive)
XF498
  GI50: 25 µM (inactive)
SK-MEL-28
  GI50: > 100 µM (inactive)
UACC-62
  GI50: 15.8 µM (inactive)
HCC 2998
  GI50: 36.6 µM (inactive)
OVCAR-4
  GI50: 31.1 µM (inactive)
NCI-H522
  GI50: 23.1 µM (inactive)
OVCAR-5
  GI50: 36.5 µM (inactive)
HL-60
  GI50: 4.79 µM (inactive)
SK-MEL-5
  GI50: 21.2 µM (inactive)
RPMI-8226
  GI50: 35.4 µM (inactive)

## CC(=O)C1=C(C)NC2C=CC=CN12 (configuration not stated)
SR
  GI50: > 100 µM (inactive)
U-251
  GI50: > 100 µM (inactive)
HT-29
  GI50: > 100 µM (inactive)
RXF 393
  GI50: > 100 µM (inactive)
SNB-19
  GI50: > 100 µM (inactive)
NCI-H460
  GI50: > 100 µM (inactive)
XF498
  GI50: > 100 µM (inactive)
SK-MEL-28
  GI50: > 100 µM (inactive)
UACC-62
  GI50: > 100 µM (inactive)
HCC 2998
  GI50: > 100 µM (inactive)
OVCAR-4
  GI50: > 100 µM (inactive)
NCI-H522
  GI50: > 100 µM (inactive)
OVCAR-5
  GI50: > 100 µM (inactive)
HL-60
  GI50: > 100 µM (inactive)
SK-MEL-5
  GI50: > 100 µM (inactive)
RPMI-8226
  GI50: > 100 µM (inactive)

## O=C1C=C(O)c2nc(O)ccc2C1=O
SR
  GI50: > 100 µM (inactive)
U-251
  GI50: > 100 µM (inactive)
HT-29
  GI50: > 100 µM (inactive)
RXF 393
  GI50: > 100 µM (inactive)
SNB-19
  GI50: > 100 µM (inactive)
NCI-H460
  GI50: > 100 µM (inactive)
XF498
  GI50: > 100 µM (inactive)
SK-MEL-28
  GI50: > 100 µM (inactive)
UACC-62
  GI50: > 100 µM (inactive)
HCC 2998
  GI50: > 100 µM (inactive)
OVCAR-4
  GI50: 26.2 µM (inactive)
NCI-H522
  GI50: > 100 µM (inactive)
HL-60
  GI50: > 100 µM (inactive)
SK-MEL-5
  GI50: > 100 µM (inactive)
RPMI-8226
  GI50: > 100 µM (inactive)

## C#C[C@@]1(O)CCCC2=CC(=O)C[C@]21C
SR
  GI50: > 100 µM (inactive)
U-251
  GI50: > 100 µM (inactive)
HT-29
  GI50: > 100 µM (inactive)
RXF 393
  GI50: > 100 µM (inactive)
SNB-19
  GI50: > 100 µM (inactive)
NCI-H460
  GI50: > 100 µM (inactive)
XF498
  GI50: > 100 µM (inactive)
SK-MEL-28
  GI50: > 100 µM (inactive)
HCC 2998
  GI50: > 100 µM (inactive)
NCI-H522
  GI50: > 100 µM (inactive)
OVCAR-5
  GI50: > 100 µM (inactive)
HL-60
  GI50: > 100 µM (inactive)
SK-MEL-5
  GI50: > 100 µM (inactive)
RPMI-8226
  GI50: > 100 µM (inactive)

## CCS/C(=N\c1ccccc1)SC
U-251
  GI50: > 100 µM (inactive)
HT-29
  GI50: > 100 µM (inactive)
RXF 393
  GI50: > 100 µM (inactive)
SNB-19
  GI50: > 100 µM (inactive)
NCI-H460
  GI50: > 100 µM (inactive)
XF498
  GI50: > 100 µM (inactive)
SK-MEL-28
  GI50: > 100 µM (inactive)
UACC-62
  GI50: > 100 µM (inactive)
HCC 2998
  GI50: > 100 µM (inactive)
OVCAR-4
  GI50: > 100 µM (inactive)
NCI-H522
  GI50: > 100 µM (inactive)
OVCAR-5
  GI50: > 100 µM (inactive)
HL-60
  GI50: > 100 µM (inactive)
SK-MEL-5
  GI50: > 100 µM (inactive)
RPMI-8226
  GI50: > 100 µM (inactive)

## CCCN(CCC)C1=Nc2ccccc2-n2cnnc2C1
SR
  GI50: > 100 µM (inactive)
U-251
  GI50: > 100 µM (inactive)
HT-29
  GI50: > 100 µM (inactive)
RXF 393
  GI50: > 100 µM (inactive)
SNB-19
  GI50: > 100 µM (inactive)
NCI-H460
  GI50: > 100 µM (inactive)
XF498
  GI50: > 100 µM (inactive)
SK-MEL-28
  GI50: > 100 µM (inactive)
UACC-62
  GI50: > 100 µM (inactive)
OVCAR-4
  GI50: > 100 µM (inactive)
NCI-H522
  GI50: 37.8 µM (inactive)
OVCAR-5
  GI50: > 100 µM (inactive)
HL-60
  GI50: > 100 µM (inactive)
SK-MEL-5
  GI50: > 100 µM (inactive)
RPMI-8226
  GI50: > 100 µM (inactive)

## COc1cccc2ccc(C(=O)c3ccccc3)nc12
SR
  GI50: > 100 µM (inactive)
U-251
  GI50: > 100 µM (inactive)
XF498
  GI50: > 100 µM (inactive)
SK-MEL-28
  GI50: 88.9 µM (inactive)
UACC-62
  GI50: > 100 µM (inactive)
HCC 2998
  GI50: > 100 µM (inactive)
OVCAR-4
  GI50: > 100 µM (inactive)
NCI-H522
  GI50: > 100 µM (inactive)
OVCAR-5
  GI50: > 100 µM (inactive)
SK-MEL-5
  GI50: > 100 µM (inactive)
RPMI-8226
  GI50: > 100 µM (inactive)
